Holding throughout (format): cell-based
The target in test [1] is T1, human V1a receptor (Homo sapiens, UniProt P37288).
T1 construct: expressed in transfected cells; host or cells: CHO K1 (Chinese hamster ovary), also stably transfected with a modified aequorin
The test can be described thus: Cellular in vitro assay for vasopressin receptor activity (V1a, aequorin luminescence). The following applies: for IC50: CHO cell line with human V1a receptor, [Arg8]-vasopressin at EC50, values are for the prodrug as such, read-out: IC50 hV1a; for ratio IC50 hV2/hV1a: selectivity ratio hV2/hV1a.

In another test the target is T2, human V2 receptor (Homo sapiens, UniProt P30518).
T2 construct: expressed in transfected cells; host or cells: CHO K1 cells expressing firefly luciferase under a CRE-responsive promoter
T2 sequence (P30518 whole entry): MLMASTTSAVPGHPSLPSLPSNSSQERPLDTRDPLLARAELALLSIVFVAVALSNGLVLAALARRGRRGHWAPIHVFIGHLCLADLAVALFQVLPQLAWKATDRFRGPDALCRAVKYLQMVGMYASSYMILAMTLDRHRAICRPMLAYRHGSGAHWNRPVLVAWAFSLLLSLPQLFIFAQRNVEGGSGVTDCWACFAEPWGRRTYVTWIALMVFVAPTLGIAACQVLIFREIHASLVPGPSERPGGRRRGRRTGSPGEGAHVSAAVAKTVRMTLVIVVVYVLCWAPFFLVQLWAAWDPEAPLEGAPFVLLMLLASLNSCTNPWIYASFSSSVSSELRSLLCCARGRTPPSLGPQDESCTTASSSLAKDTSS
Put plainly: Cellular in vitro assay for vasopressin receptor activity (V2, CRE-luciferase). The following applies: CHO cell line with human V2 receptor, [Arg8]-vasopressin at EC50; values are for the prodrug as such; read-out: IC50 hV2. The method, boiled down: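 CHO K1 cells stably expressing human V2 receptor with CRE-driven firefly luciferase; compounds added together with [Arg8]-vasopressin at EC50 concentration, 3 h at 37 °C. Luminescence read after Triton lysis and luciferin addition; IC50 reflects antagonism of agonist-induced signal, measured on prodrug form stable under assay conditions.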

Test [2] has as its target T1, human V1a receptor. The test can be described thus: Cellular in vitro assay for verification of prodrug conversion into drug (with/without alkaline phosphatase). The note with it: human V1a CHO cells. The method, then: B-4. Cellular In Vitro Assay for Verification of Prodrug Conversion into Drug
To verify the conversion of prodrugs into the respective drugs, the prodrugs are incubated with and without alkaline phosphatase. Cleavage of the phosphate moiety by alkaline phosphatase converts the prodrug into the underlying respective drug [Coleman J. E., Annu. Rev. Biophys. Biomol. Struct. 1992, 21, 441-483]. As prodrug and underlying respective drug show different IC50 values, the value of the prodrug after alkaline phosphatase treatment resembles the IC50 of the respective drug. The determination of IC50 values of compounds of the invention at the human V1a receptor is carried out using a recombinant cell line. The cell line originally derives from a hamster's ovary epithelial cell (Chinese Hamster Ovary, CHO K1, ATCC: American Type Culture Collection, Manassas, Va. 20108, USA). The test cell line constitutively expresses the human V1a receptor. Cells are also stably transfected with a modified form of the calcium-sensitive photoprotein aequorin which, after reconstitution with the cofactor coelenterazine, emits light upon increase in free calcium concentration [Rizzuto R, Simpson A W, Brini M, Pozzan T, Nature 358, 325-327 (1992); Illarionov B A, Bondar V S, Illarionova V A, Vysotski E S, Gene 153 (2), 273-274 (1995)]. The resulting vasopressin receptor cell reacts to stimulation of the recombinantly expressed V1a receptor by intracellular release of calcium ions, which can be quantified by the resulting luminescence of photoprotein. The bioluminescence of the cell line is detected using a suitable luminometer [Milligan G, Marshall F, Rees S, Trends in Pharmacological Sciences 17, 235-237 (1996)].
On the day before the assay, the cells are seeded in culture medium (DMEM/F12, 2% FCS, 2 mM glutamine, 10 mM HEPES, 5 μg/ml coelenterazine) in 384-well microtiter plates and kept in a cell incubator (96% humidity, 5% v/v CO2, 37C). On the day of the assay, 100 μl of test compounds at a concentration of 100 μM are incubated for 15 minutes with 500 units alkaline phosphatase at 37° C. in tyrode buffer (20 mM HEPES, 130 mM NaCl, 5 mM KCl, 5 mM NaHCO3, 2 mM MgCl2, pH 7,4). After incubation compounds are immediately diluted and placed for 10 minutes at 37° C. on the before seeded V1a cells. For detection of antagonistic activity of the compounds [Arg^8]-vasopressin at EC50 concentration is added and the resulting light signal is measured immediately in a luminometer.

Setting [3] is: pre-incubation 15 min with 500 units alkaline phosphatase at 37° C., read-out: IC50 with AP.
Where [4] appears, read: without alkaline phosphatase, read-out: IC50 without AP.

T1 sequence (P37288 whole entry): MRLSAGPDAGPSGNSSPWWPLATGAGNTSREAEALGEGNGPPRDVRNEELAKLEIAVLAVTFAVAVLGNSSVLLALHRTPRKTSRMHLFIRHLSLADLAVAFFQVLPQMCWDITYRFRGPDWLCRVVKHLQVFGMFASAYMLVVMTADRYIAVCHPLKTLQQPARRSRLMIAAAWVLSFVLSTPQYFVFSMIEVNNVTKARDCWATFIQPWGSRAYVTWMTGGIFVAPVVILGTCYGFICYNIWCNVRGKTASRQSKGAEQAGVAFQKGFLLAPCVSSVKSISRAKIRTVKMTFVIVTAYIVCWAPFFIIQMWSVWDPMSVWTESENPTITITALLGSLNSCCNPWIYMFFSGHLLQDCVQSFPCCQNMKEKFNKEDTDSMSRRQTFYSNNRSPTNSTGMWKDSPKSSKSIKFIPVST

`NC(=O)c1nc(Cn2nc(-c3ccc(Cl)cc3)n(C[C@H](OP(=O)(O)O)C(F)(F)F)c2=O)nn1-c1ncccc1C(F)(F)F` [Example 1, (2S)-3-[1-({5-Carbamoyl-1-[3-(trifluoromethyl)pyridin-2-yl]-1H-1,2,4-triazol-3-yl}methyl)-3-(4-chlorophenyl)-5-oxo-1,5-dihydro-4H-1,2,4-triazol-4-yl]-1,1,1-trifluoropropan-2-yl Dihydrogen Phosphate]: the IC50 at human V1a receptor [1] came out at 15.7 nM; at human V2 receptor, 193 nM; on human V1a receptor [2] (setting [3]), 1.45 nM; on human V1a receptor [2] (setting [4]), 13.1 nM. The “ratio IC50 hV2/hV1a” value at human V1a receptor [1] was 12.3.
Consider `NC(=O)c1nc(Cn2nc(-c3ccc(Cl)cc3)n(C[C@H](O)C(F)(F)F)c2=O)nn1-c1ncccc1C(F)(F)F` [Example 4A, 3-({3-(4-Chlorophenyl)-5-oxo-4-[(2S)-3,3,3-trifluoro-2-hydroxypropyl]-4,5-dihydro-1H-1,2,4-triazol-1-yl}methyl)-1-[3-(trifluoromethyl)pyridin-2-yl]-1H-1,2,4-triazole-5-carboxamide], for which the “ratio IC50 hV2/hV1a” value on human V1a receptor [1] came out at 141.0. For the same molecule, the values for the IC50 at human V1a receptor [2] (setting [3]) and on human V1a receptor [2] (setting [4]) were 1.35 nM and 1.25 nM, respectively.
As to `NC(=O)c1nc(Cn2nc(-c3ccc(Cl)cc3)n(C[C@H](OP(=O)(O)O)C(F)(F)F)c2=O)nn1-c1ccccc1C(F)(F)F` [Example 10, (2S)-3-[1-({5-Carbamoyl-1-[2-(trifluoromethyl)phenyl]-1H-1,2,4-triazol-3-yl}methyl)-3-(4-chlorophenyl)-5-oxo-1,5-dihydro-4H-1,2,4-triazol-4-yl]-1,1,1-trifluoropropan-2-yl Dihydrogen Phosphate], the IC50 at human V1a receptor [1] was found to be 10.6 nM; on human V2 receptor it was 47 nM; on human V1a receptor [2] (setting [3]), 1.3 nM; on human V1a receptor [2] (setting [4]), 11 nM. Further, the “ratio IC50 hV2/hV1a” value at human V1a receptor [1] stood at 4.4.
In the case of `NC(=O)c1nc(Cn2nc(-c3ccc(Cl)cc3)n(C[C@H](OP(=O)(O)O)C(F)(F)F)c2=O)nn1-c1ncccc1Cl` [Example 17, (2S)-3-[1-{[5-Carbamoyl-1-(3-chloropyridin-2-yl)-1H-1,2,4-triazol-3-yl]methyl}-3-(4-chloro-phenyl)-5-oxo-1,5-dihydro-4H-1,2,4-triazol-4-yl]-1,1,1-trifluoropropan-2-yl Dihydrogen Phosphate], the IC50 at human V1a receptor [1] turned out to be 9.8 nM; on human V2 receptor it was 130 nM; at human V1a receptor [2] (setting [3]) it was 1.03 nM; at human V1a receptor [2] (setting [4]), 9.45 nM. Besides, the “ratio IC50 hV2/hV1a” value at human V1a receptor [1] worked out at 13.3.

One may read the IC50 as the midpoint of a concentration-inhibition curve.

Values taken from patent US11298367B2, “Prodrugs of substituted triazole derivatives and uses thereof” (Bayer Aktiengesellschaft, priority 2017, dated 2022).
